According to US11919856B2, “Compounds” (UCL BUSINESS LTD, priority 2018, dated 2024):
Entries after “also recorded” stand apart in the source; their conditions may differ.

Experiments:
Z α1-antitrypsin polymer = assay: Liver polymer levels in Z α1-antitrypsin transgenic mice (2C1 staining); format: in vivo, human; details: 100 mg/kg three times a day for 20 days
Procedure: Since Compound 1 blocks polymer formation in cells the effect of dosing Compound 1 on liver polymer levels was explored. It has recently been shown that Z α1-antitrypsin polymers formed in CHO-TET-ON-Z-A1AT and ZZ-iPSC-hepatocytes are cleared from cells with a t½ of between 8 and 48 hours depending on whether they partition to the soluble or insoluble fractions. […] Compound 1 was therefore dosed at 100 mg/kg three times a day as above for 20 days. On days 15 and 21 of dosing, changes of monomeric Z α1-antitrypsin plasma samples were determined as above, and increases of 7- to 8-fold over the pre-dosing baseline levels were observed, similar to the effect in animals dosed for 3 or 6 days, consistent with sustained target engagement through the dosing period. Liver polymer levels were investigated by staining with 2C1 anti-polymer monoclonal antibody and were scored blinded either by a pathologist or by quantification using an algorithm to measure all areas of positive staining. There was no difference observed in total liver polymer load via manual or quantitative scoring.
To investigate whether there is a subpopulation of polymer in the liver that was responding to compound over the time frame of the experiment, areas of staining were divided into low, medium and high intensity regions and scored separately for response to compound. […]

α1-antitrypsin = assay: Equilibrium unfolding with guanidine hydrochloride (bis-ANS fluorescence); format: biochemical; details: guanidinium hydrochloride, 50 μM Compound 1; 1.2 M in its absence
Procedure: Bis-ANS is a dye that reports the appearance of the unfolding intermediate of α1-antitrypsin (Dafforn et al. J Biol Chem. 1999; 274:9548-55.). In a microplate, 10 μl aliquots of M and Z α1-antitrypsin at 0.5 mg/ml with 100 μM bis-ANS and 100 μM Compound 1 (or an equivalent volume of DMSO) were rapidly mixed with various concentrations of guanidine hydrochloride giving a final concentration of 0-6 M denaturant in PBS. Fluorescence intensity measurements of bis-ANS (λex=385 nm, λem=490 nm) were recorded once a stable signal was achieved, and the values scaled to lie between 0 and 1.0.
Polymerisation of α1-antitrypsin occurs from a transient intermediate state known as M*, that is readily populated by the Z variant. One of the hallmarks of M* is its recognition by environment-sensitive fluorescent reporter dyes. Thermal shift assays that make use of the dye SYPRO Orange report the stability of the protein native state against heat-induced unfolding. […] Native state stability can also be probed by equilibrium unfolding using chemical denaturants, where a peak in bis-ANS fluorescence corresponds with a maximally populated unfolding intermediate.

[1] = In vitro clearance in cryopreserved hepatocytes, dog; format: in vitro ADME
Z α1-antitrypsin [2] = biological target: T1, Z α1-antitrypsin (Homo sapiens, UniProt P01009, E366K/V237A); assay: Rapid refolding (non-denaturing PAGE); format: biochemical; details: snap dilution refolding
Procedure: Refolding of α1-antitrypsin in vitro is not fully reversible, due to loss of material from amorphous aggregation, polymerisation and misfolding. These contributions cannot be readily deconvoluted by bulk spectroscopic methods and therefore refolding was evaluated by non-denaturing PAGE. M and Z α1-antitrypsin at 9.6 mg/ml were denatured in 6 M urea and 15 mM sodium phosphate pH 8.0 for 4 hours at room temperature, and 1.25 μl was snap refolded into 250 μl PBS containing 0-50 μM Compound 1 and a normalised concentration of 5% v/v DMSO. After incubation for 1 hour at room temperature samples were analysed by Coomassie-stained 3-12% w/v acrylamide Bis-Tris Native PAGE gel (Life Technologies).
Mutations that interfere with the opening of […] or that perturb its interaction with the N-terminal portion of the reactive centre loop alter the ability of serpins to inhibit target proteases. The stoichiometry of inhibition (SI) was determined for M and Z α1-antitrypsin in discontinuous experiments against a model target protease, chymotrypsin. The pre-incubation of both variants with Compound 1 led to a >98% loss of protease inhibitory activity. […]

M α1-antitrypsin = biological target: T2, M α1-antitrypsin (Homo sapiens, UniProt P01009); assay: Compound association experiments (intrinsic tryptophan fluorescence), M α1-antitrypsin; format: binding
T2 construct: Alpha1-antitrypsin was purified from the plasma of ZZ and MM α1-antitrypsin homozygotes; from tissue; host or cells: plasma of MM homozygotes
Procedure: (§1) The intrinsic tryptophan fluorescence of α1-antitrypsin is dominated by Trp194 in the breach region (Tew et al. J Mol Biol. 2001 Nov. 9; 313(5):1161-9) and can be used to monitor the progress of compound binding. Plasma M and Z α1-antitrypsin were diluted to 0.2 mg/ml in 100 μM PBS, and Compound 1 (or an equivalent volume of DMSO) added to a concentration of 10 μM. Fluorescence (λex=280 nm, λem=330 nm) was monitored for at least 2 hours, and the half-time of change was calculated.
(§2) Kinetic data in stopped flow experiments were fitted to exponential decay curves with offset and linear slope, to account for a constant drift in the background, resulting in observed pseudo-first-order rate constants k(obs): y=A0·e^−k(obs)t+slope·t+offset where t=time and Ao=amplitude at t=0. The second-order on-rate was then obtained as the slope when plotting k(obs) values versus compound concentration. Off-rates were calculated from the on-rates and the KD values determined from the binding assays. Cell Biology

Z α1-antitrypsin [3] = biological target: T1, Z α1-antitrypsin; assay: Compound association experiments (intrinsic tryptophan fluorescence), Z α1-antitrypsin; format: binding; design: a random insertion of the human Z α1-antitrypsin gene; from tissue; host or cells: liver and plasma of Z α1-antitrypsin transgenic mice (human Z transgene)
Procedure: as §1, §2

Permeability = format: in vitro ADME
[4] = calculated from on-rate and KD, read-out: first-order dissociation rate
[5] = read-out: second-order association rate

T1 sequence (P01009 25-418 V237A/E366K): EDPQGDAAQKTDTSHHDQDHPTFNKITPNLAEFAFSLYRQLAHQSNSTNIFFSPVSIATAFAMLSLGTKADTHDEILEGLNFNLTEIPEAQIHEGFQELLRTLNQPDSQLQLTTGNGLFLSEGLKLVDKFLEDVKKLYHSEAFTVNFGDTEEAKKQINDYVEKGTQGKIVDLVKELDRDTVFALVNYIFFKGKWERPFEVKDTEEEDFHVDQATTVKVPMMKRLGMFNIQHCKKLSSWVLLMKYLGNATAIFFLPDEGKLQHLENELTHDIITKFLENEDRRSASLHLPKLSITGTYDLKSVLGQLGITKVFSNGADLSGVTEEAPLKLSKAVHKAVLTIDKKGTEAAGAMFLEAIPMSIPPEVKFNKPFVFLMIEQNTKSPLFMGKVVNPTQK
T2 sequence (P01009 25-418): as the sequence (P01009 25-418 V237A/E366K) above, with A213V, K342E counted along it

CCC[C@@H](NC(=O)c1cccc2c1CC(=O)N2)[C@@H](O)c1cccc(F)c1C [Compound 1, N-[(1S,2R)-1-(3-fluoro-2-methylphenyl)-1-hydroxypentan-2-yl]-2-oxo-2,3-dihydro-1H-indole-4-carboxamide]
liver polymer staining in low, medium and high intensity regions (Z α1-antitrypsin polymer): No effect | total liver polymer load (Z α1-antitrypsin polymer; manual or quantitative scoring): no difference; also recorded: no reduction | denaturant concentration at peak bis-ANS fluorescence (maximally populated unfolding intermediate) (α1-antitrypsin): 1.8 M | in vitro clearance in cryopreserved hepatocytes [1]: < 0.65 mL/min/g | anodally-shifted migration (misfolded byproduct) of refolded Z variant (Z α1-antitrypsin [2]): corrected at stoichiometric concentrations and above | koff (M α1-antitrypsin; [4]): 1.6e-05 s⁻¹ | kon (M α1-antitrypsin; [5]): 210 M⁻¹ s⁻¹ | koff (Z α1-antitrypsin [3]; [4]): 6.1e-05 s⁻¹ | kon (Z α1-antitrypsin [3]; [5]): 41000 M⁻¹ s⁻¹ | Permeability (Permeability): high
